From US20230286948A1 (HUYABIO International, LLC, priority 2022, published 2023) come the findings set out here.

Data set [1] addresses hERG (Homo sapiens (Human), UniProt Q12809). As to the kind of experiment: hERG radioligand binding assay. To be noted: for inhibition at 1 h, 10000 nM: human, hERG membrane stocks (membrane preparation), probe 3H radio ligand (not named), max dose 10,000 nM, read-out: % Inh at Max dose. The method, then:
Procedure: Compounds were prepared and diluted with DMSO to make 0.2 mM and 0.02 mM solution. Reference compound was diluted with DMSO to make 8-point 4-fold serial dilution, starting at 0.2 mM. One μl of compounds/high control/low control was transferred to the assay plate according to the plate map. Next, and by following the plate map, 100 μl of membrane stocks was dispensed into the plate followed by adding 100 μl of radio ligand. Plates were then sealed and were incubated at RT for 1 hours. In the meantime, the Unifilter-96 GF/C filter plates were soaked with 50 μL of 0.5% BSA per well for at least 0.5 hour at room temperature. When binding assays were completed, the reaction mixture was filtered through GF/C plates using Perkin Elmer Filtermate Harvester, and then each plate was washed for 4 times with cold wash buffer. Next, the filter plates were dried for 1 hr at 50 degrees and the bottom of the filter plate wells were sealed using Perkin Elmer Unifilter-96 backing seal tape. Next, 50 μl of Perkin Elmer Microscint 20 cocktail was added. The top of the filter plate was sealed with Perkin Elmer TopSeal-A sealing film. Using Perkin Elmer MicroBeta2 Reader count 3H trapped on filter. Finally, the data was analyzed with GraphPad Prism 5. The “Inhibition [% Control]” was calculated using the equation: % Inh=(1-Background subtracted Assay value/Background subtracted HC value)*100.
A general note: hERG is a cardiac potassium channel; its block is linked to QT prolongation.

In data set [2] the test system is MV-411 cells. Description: Anti-proliferative activity against MV-411 leukemia cells (CellTiterGlo viability, 72 h). The data set is classed as cell-based. To be noted: Homo sapiens, MV4-11, 72 h, MV-411 human acute monocytic leukemia cells, a second value in parentheses is a further determination. The method, then:
Procedure: MV-411 cells were seeded into 384 well plates at 2000 cells/well density in 50 μL total volume, according to plate map and were allowed to naturally sediment by waiting about 30 min on a Clean Bench. Next, plated cells were centrifuged for 1 min at 1000 rpm and the excess cells were transferred into the flasks for further culture. Cells in the assay plates were incubated (at least 4 hrs.) at 37° C., 5% CO2 followed by adding the compounds as the plate map indicated. The tests were performed in duplicates with treatment of compounds at 10 pts 3-fold titration in 384 well plates. Taxol was used as positive control while DMSO as negative control. To rule out edge effect, the wells on the edge were not seeded and therefore one 384 well plate holds 13 compounds. Cells viability was measured 72h after incubation with compounds using CellTiterGlo (promega) viability assay according to manufacturer's instruction to check the ATP production in each well.
Experiments on anti-proliferative activity against leukemia cells were conducted with some of the compounds of the invention.
On the technique in general: In ATP-based viability assays light output follows the ATP content of the culture.

Data set [3] can be described thus: Solubility remark in Table 4. The data set is classed as physicochemical. The settings on record: remark beside the GI50 value.
For data set [4], the target named is MLL1-WDR5 protein-protein interaction (Homo sapiens (Human), UniProt P61964). Description: WDR5 TR-FRET assay (MLL1-WDR5 PPI inhibition). To be noted: 5 nM WDR5 protein, 10 nM peptide, read-out: IC50 (nM), MLL1-WDR5 PPI inhibitory activity. Format: binding.

hERG, sequence (Q12809 whole entry): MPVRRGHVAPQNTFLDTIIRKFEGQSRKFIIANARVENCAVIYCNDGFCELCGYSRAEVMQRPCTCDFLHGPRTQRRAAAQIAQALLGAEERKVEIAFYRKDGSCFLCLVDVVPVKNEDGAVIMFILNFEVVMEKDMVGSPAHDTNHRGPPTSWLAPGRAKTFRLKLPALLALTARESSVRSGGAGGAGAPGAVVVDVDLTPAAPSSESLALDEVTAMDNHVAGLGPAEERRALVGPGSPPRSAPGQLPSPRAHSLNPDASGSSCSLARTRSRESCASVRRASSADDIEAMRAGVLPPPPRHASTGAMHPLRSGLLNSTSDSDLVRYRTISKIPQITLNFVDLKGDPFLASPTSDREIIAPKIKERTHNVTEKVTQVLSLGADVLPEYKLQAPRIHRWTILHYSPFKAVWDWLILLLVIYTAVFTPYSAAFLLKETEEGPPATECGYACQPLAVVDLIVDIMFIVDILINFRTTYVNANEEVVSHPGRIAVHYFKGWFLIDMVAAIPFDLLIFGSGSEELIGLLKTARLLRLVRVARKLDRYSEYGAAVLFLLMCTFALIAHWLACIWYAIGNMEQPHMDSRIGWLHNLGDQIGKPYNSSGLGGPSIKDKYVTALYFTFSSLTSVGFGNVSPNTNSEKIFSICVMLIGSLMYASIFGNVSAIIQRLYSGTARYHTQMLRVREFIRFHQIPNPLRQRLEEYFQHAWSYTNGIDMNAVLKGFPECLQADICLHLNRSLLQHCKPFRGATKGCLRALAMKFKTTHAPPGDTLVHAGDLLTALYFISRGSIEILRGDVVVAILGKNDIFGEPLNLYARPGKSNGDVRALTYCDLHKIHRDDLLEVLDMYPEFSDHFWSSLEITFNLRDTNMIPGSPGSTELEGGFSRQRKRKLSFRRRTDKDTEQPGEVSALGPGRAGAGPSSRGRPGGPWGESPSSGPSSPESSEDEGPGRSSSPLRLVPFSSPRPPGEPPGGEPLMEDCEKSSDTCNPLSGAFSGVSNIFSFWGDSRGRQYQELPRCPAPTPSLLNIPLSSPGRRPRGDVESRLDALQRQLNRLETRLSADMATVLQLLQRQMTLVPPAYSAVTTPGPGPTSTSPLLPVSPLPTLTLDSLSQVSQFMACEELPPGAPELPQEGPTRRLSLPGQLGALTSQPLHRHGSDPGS

On to `C[C@H]1CN(c2ccc(-n3cc(C(=O)NCCCN4CCOCC4)nn3)cc2NC(=O)c2cnc(Cl)cc2C(F)(F)F)CCN1C` [Compound 9], for which, in data set [1], the IC50 is over 10000 nM and the inhibition at 1 h, 10000 nM amounted to 6.39%. In addition, the concentration for 50% growth inhibition (GI50) in data set [2] was found to be 0.241 µM.
In the case of `Cc1c(Cl)ncc(C(=O)Nc2cc(-n3cc(C(=O)NCCCN4CCOCC4)nn3)c(F)cc2N2CCN(C)[C@H](C)C2)c1Cl` [Compound 59], in data set [3], the “solubility (remark)” value is listed as “(poor solubility)”. Besides, the GI50 in data set [2] is over 204 µM.
Turning to `CN1CCN(c2cc(F)c(-n3cc(C(=O)NCCCN4CCOCC4)nn3)cc2NC(=O)c2cnc(Cl)cc2C(F)(F)F)CC1` [Compound 7], in data set [1], the IC50 was over 10000 nM and the inhibition at 1 h, 10000 nM was found to be 11.8%. In data set [2], the GI50 came out at 0.4 µM.
The matching figures for `CN1CCN(c2ccc(-n3cc(C(=O)NCCCN4CCOCC4)nn3)cc2NC(=O)c2cnc(Cl)cc2C(F)(F)F)CC1` [Compound 3]: over 10000 nM, 3.31% and 0.298 µM.
Consider `CN(CCOc1ccc(NS(C)(=O)=O)cc1)CCc1ccc(NS(C)(=O)=O)cc1` [Dofetilide], for which the inhibition at 1 h, 10000 nM in data set [1] was found to be 99.9%.
For `COc1ccc(C(=O)Nc2cc(-n3cc(C(=O)NCCCN4CCOCC4)nn3)ccc2N2CCN(C)CC2)c(C(F)(F)F)n1` [Example 38, 6-methoxy-N-(2-(4-methylpiperazin-1-yl)-5-(4-((3-morpholinopropyl)carbamoyl)-1H-1,2,3-triazol-1-yl)phenyl)-2-(trifluoromethyl)nicotinamide], the half-maximal inhibitory concentration (IC50) in data set [4] is over 10000 nM.

In general, IC50 refers to the point on the concentration scale where inhibition reaches its midpoint. A word on the GI50: it is the concentration at which growth is held to half of that of the control.
